Reference: patent US9174996B2, “Protein kinase inhibitors” (Astar Biotech LLC, priority 2012, dated 2015)
Like-named read-outs stand apart in the source and are kept apart here.

Tests used:
[1] = tested on: Ba/F3 harboring the T315I mutant isoform of BCR-ABL; assay: BaF3/BCR-ABL T315I mouse xenograft model, Experiment 4; type: in vivo; conditions: oral, 14 days, NOD SCID mice
Method: The murine pro-B cell line Ba/F3 harboring the T315I mutant isoform of BCR-ABL was subcutaneously injected into NOD SCID mice (NOD.CB17-Prkdc^scid/J). […] The tumor volumes in two dimensions and the body weights of the mice were measured three times a week (volume=L×W^2×0.5).

U937 = assay: MTT cell viability assay, Experiment 3; type: cell-based; conditions: Homo sapiens
Text: (§1) This study evaluated the effect of the pure optical isomers on human leukemia cell viability in vitro. Ponatinib was used as the positive control. Two BCR-ABL-positive human leukemia cell lines, K562 and KU812, were used in this study. Besides, Ba/F3 cell transfectants expressing native or T315I BCR-ABL, whose viability is dependent on ectopically expressed BCR-ABL, were also used in this work. Ba/F3 cells expressing BCR-ABL^T315I were used for testing the efficiency of tested compounds on point mutation BCR-ABL^T315I, which cause drug resistance to Imatinib (Gleevec). U937 and JURKAT, two BCR-ABL-negative human leukemia cell lines, were employed to test the selectivity of tested compounds.
(§2) Cells were seeded in 24-well plates, and treated with drugs at corresponding concentrations. Cell viability was measured using a MTT (3-(4,5-dimethylthiazol-2-yl)-2,5-diphenyltetrazolium bromide)-based colorimetric assay with a 96-well plate reader. IC50 values were calculated using the mean of two independent experiments.

KU812 = assay: MTT cell viability assay, Experiment 3; type: cell-based; conditions: Homo sapiens
Text: as §1, §2

JURKAT = assay: MTT cell viability assay, Experiment 3; type: cell-based; conditions: Homo sapiens, read-out: IC50 cell viability, Non-CML leukemia cells JURKAT
Text: as §1, §2

K562 = assay: MTT cell viability assay, Experiment 3; type: cell-based; conditions: Homo sapiens
Text: as §1, §2

[2] = target: Ba/F3 cells expressing BCR-ABL T315I (Homo sapiens, UniProt P00519, T315I, cells depend on it); assay: MTT cell viability assay, Experiment 3; type: cell-based, murine; conditions: Mean ± S.E.M, two independent experiments, read-out: IC50 cell viability, Ba/F3 cells T315I BCR-ABL
Text: as §1, with “Ponatinib was used as the positive control.” left out
as §2

[3] = target: Ba/F3 cells expressing native BCR-ABL (Homo sapiens, UniProt P00519); assay: MTT cell viability assay, Experiment 3; type: cell-based, murine; conditions: Mean ± S.E.M, two independent experiments, read-out: IC50 cell viability, Ba/F3 cells Native BCR-ABL
Text: as §1, with “Ponatinib was used as the positive control.” left out
as §2

[4] = U-937, MTT, Mean ± S.E.M, two independent experiments, read-out: IC50 cell viability, Non-CML leukemia cells U937
[5] = KU812, MTT, Mean ± S.E.M, two independent experiments, read-out: IC50 cell viability, CML leukemia cells KU812
[6] = MTT, Mean ± S.E.M, two independent experiments
[7] = K562, MTT, Mean ± S.E.M, two independent experiments, read-out: IC50 cell viability, CML leukemia cells K562

Structure (SMILES)	TGI (Tumor growth inhibition) ([1]; 10 mg/kg/day) [%]	TGI (Tumor growth inhibition) ([1]; 20 mg/kg/day) [%]	IC50 (U937; [4]) [nM]	IC50 (KU812; [5]) [nM]	IC50 (JURKAT; [6]) [nM]	IC50 (K562; [7]) [nM]	GI50 [2] [nM]	GI50 [3] [nM]	TGI (Tumor growth inhibition) ([1]; 5 mg/kg/day) [%]	IC50 (U937; U-937, read-out: IC50 cell viability, Non-CML leukemia cells U937) [nM]	IC50 (KU812; KU812, read-out: IC50 cell viability, CML leukemia cells KU812) [nM]	IC50 (JURKAT) [nM]	IC50 (K562; K562, read-out: IC50 cell viability, CML leukemia cells K562) [nM]
Cc1ccc(C(=O)Nc2ccc3c(c2)C(F)(F)C[C@@H]3N2CCN(C)CC2)cc1C#Cc1cnc2cccnn12 [Compound 36-(S), (S)-N-(1,1-difluoro-2,3-dihydro-3-(4-methylpiperazin-1-yl)-1H-indan-6-yl)-3-(2-(imidazo[1,2-b]pyridazin-3-yl)ethynyl)-4-methylbenzamide]	105	108	868 ± 88.7	0.1 ± 0.1	851 ± 25.7	0.4 ± 0.1	4.7 ± 1.3	2.1 ± 0.2					
CN1CCN([C@H]2CC(F)(F)c3cc(NC(=O)c4ccc(Cl)c(C#Cc5cnc6cccnn56)c4)ccc32)CC1 (single isomer, unassigned) [Compound 38-(S)]			> 1000	0.2 ± 0.1	> 1000	0.6 ± 0.1	3.8 ± 0.2	2.2 ± 0.3	81				
Cc1ccc(C(=O)Nc2ccc(CN3CCN(C)CC3)c(C(F)(F)F)c2)cc1C#Cc1cnc2cccnn12 [Ponatinib, reference compound]	75	94								246 ± 12.5	0.1 ± 0.1	295 ± 5	0.3 ± 0.1
